{"source": "paper PMC4471549", "about": "(Angewandte Chemie (International Ed. in English), 2015)", "key": {"STAT5a (SH2 domain)": {"biological_target": "T1, STAT5a (SH2 domain) (Homo sapiens, UniProt P42229)", "T1 sequence (P42229 1-794)": "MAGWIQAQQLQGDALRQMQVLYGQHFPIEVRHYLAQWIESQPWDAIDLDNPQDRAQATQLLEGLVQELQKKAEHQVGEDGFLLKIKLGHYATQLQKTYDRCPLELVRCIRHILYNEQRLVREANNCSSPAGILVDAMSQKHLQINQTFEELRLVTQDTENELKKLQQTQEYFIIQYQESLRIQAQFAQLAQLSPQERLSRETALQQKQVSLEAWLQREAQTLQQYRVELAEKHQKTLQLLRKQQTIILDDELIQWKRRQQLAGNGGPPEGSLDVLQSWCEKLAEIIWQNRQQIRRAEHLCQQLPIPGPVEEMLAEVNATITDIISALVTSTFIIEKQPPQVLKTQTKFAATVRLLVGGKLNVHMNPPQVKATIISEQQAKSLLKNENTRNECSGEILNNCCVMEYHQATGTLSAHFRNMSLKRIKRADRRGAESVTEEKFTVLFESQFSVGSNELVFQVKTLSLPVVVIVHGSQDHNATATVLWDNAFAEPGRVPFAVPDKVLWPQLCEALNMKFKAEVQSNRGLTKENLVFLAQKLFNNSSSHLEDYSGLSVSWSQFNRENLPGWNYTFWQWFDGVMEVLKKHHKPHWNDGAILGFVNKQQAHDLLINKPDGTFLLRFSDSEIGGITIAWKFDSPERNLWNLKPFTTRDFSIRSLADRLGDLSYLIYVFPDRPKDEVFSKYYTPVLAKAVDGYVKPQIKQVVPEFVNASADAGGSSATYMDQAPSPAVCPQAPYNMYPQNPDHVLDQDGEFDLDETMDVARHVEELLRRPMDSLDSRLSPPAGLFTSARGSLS", "test": "competitive fluorescence polarization assay", "assay_type": "binding"}, "STAT5b (SH2 domain)": {"biological_target": "T2, STAT5b (SH2 domain) (Homo sapiens, UniProt P51692)", "T2 sequence (P51692 1-787 limits assumed)": "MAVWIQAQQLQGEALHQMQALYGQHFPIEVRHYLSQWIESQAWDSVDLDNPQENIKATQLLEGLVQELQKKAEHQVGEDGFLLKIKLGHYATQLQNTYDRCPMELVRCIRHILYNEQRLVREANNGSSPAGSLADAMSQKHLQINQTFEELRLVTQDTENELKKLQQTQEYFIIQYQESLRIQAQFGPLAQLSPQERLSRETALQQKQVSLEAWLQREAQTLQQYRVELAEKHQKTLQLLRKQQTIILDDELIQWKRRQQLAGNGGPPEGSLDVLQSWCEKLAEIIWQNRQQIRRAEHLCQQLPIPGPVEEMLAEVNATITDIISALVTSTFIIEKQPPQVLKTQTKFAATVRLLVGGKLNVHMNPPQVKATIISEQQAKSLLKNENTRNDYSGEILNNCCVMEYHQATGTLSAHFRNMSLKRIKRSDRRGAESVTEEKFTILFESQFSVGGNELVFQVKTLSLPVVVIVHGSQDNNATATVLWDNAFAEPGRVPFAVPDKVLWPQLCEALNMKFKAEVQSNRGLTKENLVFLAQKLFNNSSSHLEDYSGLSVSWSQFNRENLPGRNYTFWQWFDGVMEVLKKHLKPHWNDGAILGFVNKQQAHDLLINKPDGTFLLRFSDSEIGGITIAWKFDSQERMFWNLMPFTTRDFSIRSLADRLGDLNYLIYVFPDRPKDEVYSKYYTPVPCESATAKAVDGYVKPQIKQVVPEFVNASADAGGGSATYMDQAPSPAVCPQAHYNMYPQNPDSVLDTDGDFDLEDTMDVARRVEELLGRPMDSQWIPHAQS", "test": "competitive fluorescence polarization assay", "assay_type": "binding"}}, "data": [{"smiles": "O=C(NCCc1ccc(OP(=O)(O)O)c(OP(=O)(O)O)c1)OCC1c2ccccc2-c2ccccc21", "note": "[compound 7, Fmoc-protected dopamine bisphosphate]", "values": [{"measurement": "Ki", "setting": "STAT5a (SH2 domain)", "result": "16 ± 0.8", "unit": "µM"}, {"measurement": "Ki", "setting": "STAT5b (SH2 domain)", "result": "0.45 ± 0.04", "unit": "µM"}]}, {"smiles": "COC(=O)[C@H](Cc1ccc(OP(=O)(O)O)c(OP(=O)(O)O)c1)NC(=O)OCC1c2ccccc2-c2ccccc21", "note": "[compound 8, Fmoc-protected L-Dopa methyl ester bisphosphate]", "values": [{"measurement": "Ki", "setting": "STAT5a (SH2 domain)", "result": "7.8 ± 1", "unit": "µM"}, {"measurement": "Ki", "setting": "STAT5b (SH2 domain)", "result": "0.46 ± 0.08", "unit": "µM"}]}]}
